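Values below derive from 48-hour exposures of cells grown in 96-well plates, with endpoints linearly interpolated between the two concentrations bracketing the appropriate inhibition level. GI50: concentration for 50% inhibition of growth. At the TGI there is no net growth.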
Assays:
Assay in all cases: growth of human tumour cells (NCI), 48 h
NCI/ADR-RES ovarian = tested on: NCI/ADR-RES ovarian
MDA-MB-435 = tested on: MDA-MB-435
TK-10 renal = tested on: TK-10 renal
786-0 renal = tested on: 786-0 renal
SF-295 CNS = tested on: SF-295 CNS
SK-OV-3 ovarian = tested on: SK-OV-3 ovarian
OVCAR-4 ovarian = tested on: OVCAR-4 ovarian
K-562 leukemia = tested on: K-562 leukemia

| Compound | GI50 (NCI/ADR-RES ovarian) [µM] | TGI (NCI/ADR-RES ovarian) [µM] | GI50 (MDA-MB-435) [µM] | TGI (MDA-MB-435) [µM] | GI50 (TK-10 renal) [µM] | TGI (TK-10 renal) [µM] | GI50 (786-0 renal) [µM] | TGI (786-0 renal) [µM] | GI50 (SF-295 CNS) [µM] | TGI (SF-295 CNS) [µM] | GI50 (SK-OV-3 ovarian) [µM] | TGI (SK-OV-3 ovarian) [µM] | GI50 (OVCAR-4 ovarian) [µM] | TGI (OVCAR-4 ovarian) [µM] | GI50 (K-562 leukemia) [µM] | TGI (K-562 leukemia) [µM] |
| --- | --- | --- | --- | --- | --- | --- | --- | --- | --- | --- | --- | --- | --- | --- | --- | --- |
| CC(C)[C@@]12C[C@@H](OC(=O)COC(=O)c3ccccc3)[C@@](C)(O1)[C@@H]1CC[C@@H](C)[C@H]1[C@@H]2OC(=O)/C=C/c1ccccc1 | 0.47 | > 100 | > 100 | > 100 | > 100 | > 100 | 3.95 | > 100 | > 100 | > 100 | > 100 | > 100 | > 63.1 | > 100 | 62.7 | > 100 |
| COc1ccc(-c2nc3sccn3c2-c2ccnc(NCCNS(=O)(=O)c3ccc(C(F)(F)F)cc3)n2)cc1 | 3.12 | > 100 | 1.44 | 5.88 | 2.87 | > 100 | 0.641 | 11.3 | 2.24 | 5.58 | 4.44 | > 100 | 1.99 | 39.6 | 0.411 | > 100 |
| COc1ccc(N=Nc2ccc(O)c(=O)cc2)cc1 |  |  | 4.02 | > 100 | 5.8 | > 100 | 3.07 | > 100 | 3.79 | > 100 | 4.58 | > 100 | 5.05 | > 100 | 3.69 | > 100 |
| O=C(O)CN1C(=O)OC(c2ccccc2)C1=O (stereo not given) |  | > 100 |  | > 100 |  | > 100 |  | > 100 |  | > 100 |  | > 100 |  | > 100 |  | > 100 |
| CCCCCCCCCN=C(N)c1ccc(N2CCN(c3ccc(C(N)=NCCCCCCCCC)cc3)CC2)cc1 | 3.56 | > 50 | 1.74 | 5.35 | 4.3 | 14.7 | 3.4 | > 50 | 1.24 | 2.57 | 2.65 | 33.1 | 3.86 | > 50 | 1.72 | 17 |
| O=C(CCN1CCCCC1)c1csc2ccccc12 |  | > 100 |  | > 100 |  | > 100 |  | > 100 |  | > 100 |  | > 100 |  | > 100 |  | > 100 |
| COc1cc(-c2oc3c(OC)c(O)c(OC)c(O)c3c(=O)c2OC)cc(OC)c1OC |  | > 100 |  | > 100 |  | > 100 |  | > 100 |  | > 100 |  | > 100 |  | > 100 |  | > 100 |
| COC(=O)C1c2cc3c(c(O)c2CCC1(C)O)C(=O)c1c(O)cc2c(c1C3=O)OC1OC2(C)C(O)C(N(C)C)C1O (stereo not given) |  | 3.54 |  | 2.17 |  | 1.66 |  | 2.63 |  | 1.87 |  | 15 |  | 1.45 |  | 1.03 |
| COc1cc2c(Nc3ccc(-c4ccc(N)cc4)cc3)ncnc2c(OC)c1OC | 4.54 | > 100 | 0.752 | 47.1 | 21 | > 100 | 3.72 | > 100 | 1.5 | 7.52 | 46.5 | > 100 | 6.01 | > 100 | 0.521 | > 100 |
| CCCCCc1cc(/C=C2/N=C(c3ccc[nH]3)C=C2OC)[nH]c1C |  | 1.14 |  | 0.187 |  | 1.29 |  | < 0.0459 |  | < 0.0282 |  | 1.13 |  | 0.351 |  | 0.259 |
| CCN1C(=O)/C(=c2\sc3n(c2=O)C2C(NN=3)N(CC)C(=O)N2CC)c2ccccc21 (stereo not given) | 0.411 | 13.8 | 0.199 | 0.449 | 5.97 | 24.6 | 0.663 | 16.9 | 0.377 | 6.64 | 2.12 | > 55.7 | 5.48 | > 100 | 0.362 | > 100 |
| COc1cc(/C=C2\CCC/C(=C\c3cc(CN4CCCC4)c(O)c(OC)c3)C2=O)cc(CN2CCCC2)c1O | 3.47 | > 100 | 2.75 | 7.46 | 4.36 | 15.5 | 3.15 | 14.7 | 9.89 | 25.2 | 4.58 | 16.5 | 5.93 | > 100 | 3 | 16.9 |
| CCOC(=O)C1=C(C)NC2SC(=O)/C(=C\c3cccc(Cl)c3)N2C1c1ccccc1 (stereo not given) | > 100 | > 100 | > 100 | > 100 | > 100 | > 100 | > 100 | > 100 | > 100 | > 100 | > 100 | > 100 | 84.3 | > 100 | > 100 | > 100 |
| Cc1nc2ccc(-n3ncc(C(=O)c4cc5ccccc5[nH]4)c3N)cc2[nH]1 | 11.9 | 80.2 | 14.5 | > 100 | 18.4 | > 100 | 9.44 | 69.4 | 4.87 | 44.8 | 14 | > 100 | 16 | > 100 | 3.07 | > 100 |
| O=C1CCc2cc(Br)ccc2O1 |  |  |  | > 100 |  | > 100 |  | > 100 |  | > 100 |  |  |  | > 100 |  | > 100 |
| Cc1[nH]c(C(=O)Nc2cccc(OC3CCNCC3)c2)c(Cl)c1Cl | 1.84 | 3.47 | 1.81 | 3.3 | 1.94 | 3.7 | 1.83 | 3.44 | 1.97 | 3.96 | 2.07 | 5.09 | 2.6 | 6.76 | 1.76 | 4.53 |
| Cc1ccc(C2=NN(c3ccc(S(=O)(=O)NC(=O)NCc4ccccc4)cc3)C(c3ccc(N(C)C)cc3)C2)c(C)c1 (stereo not given) | 3.93 | 25.1 | 2.51 | 7.08 | 6.46 | 35.9 | 4.37 | 36.1 |  |  | 8.43 | > 100 | 3.54 | > 100 | 3.51 | > 100 |

| Compound | GI50 (NCI/ADR-RES ovarian) [µM] | TGI (NCI/ADR-RES ovarian) [µM] | GI50 (MDA-MB-435) [µM] | TGI (MDA-MB-435) [µM] | GI50 (TK-10 renal) [µM] | TGI (TK-10 renal) [µM] | GI50 (786-0 renal) [µM] | TGI (786-0 renal) [µM] | GI50 (SF-295 CNS) [µM] | TGI (SF-295 CNS) [µM] | GI50 (SK-OV-3 ovarian) [µM] | TGI (SK-OV-3 ovarian) [µM] | GI50 (OVCAR-4 ovarian) [µM] | TGI (OVCAR-4 ovarian) [µM] | GI50 (K-562 leukemia) [µM] | TGI (K-562 leukemia) [µM] |
| --- | --- | --- | --- | --- | --- | --- | --- | --- | --- | --- | --- | --- | --- | --- | --- | --- |
| c1cc[n+](Cc2c3ccccc3cc3c2ccc2ccccc23)cc1 | > 100 | > 100 | 3.29 | 12.2 | 8.2 | 28.2 | 4.83 | 26.1 | 3.42 | 23.2 | 13.6 | 59.1 | 3.57 | 14.3 | 3.21 | 17.8 |
| COc1ccc2c(c1)OCC1c3cc(OC)c4ccccc4c3OC21 (stereo not given) | 4 | 28.2 | 2.56 | 7.46 | 11.8 | 53.9 | 26.1 | > 100 | 2 | 6.91 | 15.9 | > 100 | 16.5 | > 100 | 4.62 | > 100 |
| CC1(C)CC[C@]23CC[C@]4(C)[C@H](CC[C@@H]5[C@@]6(C)CCCNC(C)(C)[C@@H]6CC[C@]54C)[C@H]2[C@H]1OC3 |  |  | 1.65 | 3.02 | 1.89 | 3.61 | 1.66 | 3.21 | 1.7 | 3.19 | 2.73 | 7.93 | 1.65 | 3.12 | 1.96 | 7 |
| CCc1ccc(Oc2c(-c3ccc(OCCc4cccc(C(F)(F)F)c4)cc3O)n[nH]c2C(F)(F)F)cc1 | 5.19 | 11.9 | 3.71 | 10.3 | 5.52 | 11.5 | 6.38 | 12.9 | 8.12 | 15.4 | 6.57 | 12.9 | 2.22 | 8.05 | 1.8 | 6.1 |
| NS(=O)(=O)c1ccc(N=Nc2c(O)[nH]c3ccc(C(=O)NCCCn4ccnc4)cc23)cc1 | > 25 | > 25 | > 25 | > 25 | > 25 | > 25 | > 25 | > 25 | > 25 | > 25 | > 25 | > 25 | > 25 | > 25 | > 25 | > 25 |
| COc1ccc(-c2cc(=O)c3c(OC)c4ccoc4c(/C=C/C=O)c3o2)cc1 | 2.84 | 48 | 2.81 | 32.3 |  |  | 16.8 | 72.5 | 3.4 | 26.5 | 4.73 | 23 | 3.8 | > 100 | 2.8 | > 100 |
| CC(=O)[O-].CC(=O)[O-].O=C([CH-]C(=O)c1ccccc1)c1ccccc1.[Nd+3].[OH3+] |  |  |  |  | 27 | 87.6 | 19.4 | 63.9 | 10.7 | 35.2 | 27 | 90.5 | 27 | > 100 | 7.26 | > 100 |
| CCN1CCN(Cc2ccc(NC(=O)Nc3nc(-c4cc(OC)c(OC)c(OC)c4)cs3)cc2C(F)(F)F)CC1 |  |  | 1.5 | 2.82 | 1.95 | 4.25 | 1.66 | 3.15 | 1.55 | 3.13 | 1.71 | 3.85 | 1.47 | 5.13 | 0.42 | 1.92 |
| CCOc1cc(Cl)c(C(C)NC(=O)c2cccc(OC)c2)cc1OCC (stereo not given) | 4.18 | > 100 |  |  | 28.6 | > 100 | 20.5 | > 100 | 5.99 | > 84.5 | 15.6 | > 100 | 17.9 | 99.4 | 3.9 | > 100 |
| CCCCCOC(=O)Nc1nc(=O)n(C2OC(C)C(O)C2O)cc1F (stereo not given) | > 10000 | > 10000 | > 10000 | > 10000 | > 10000 | > 10000 | > 10000 | > 10000 | > 10000 | > 10000 | > 10000 | > 10000 | > 10000 | > 10000 |  |  |
| Cc1cc(S(=O)(=O)Nc2nc3ccccc3c(=O)n2Cc2ccco2)c(S)cc1Cl | 54.8 | > 100 | 41.2 | > 100 | 35 | > 100 | 36.1 | > 100 | 31.8 | > 100 |  |  | 87.7 | > 100 | 49.7 | > 100 |
| CSC1=CC(=O)c2ccccc2C1=O | 2.81 | 11.7 | 3.02 | 9.73 | 2.66 | 5.5 | 4.06 | 14.1 | 15.4 | 31.5 | 18.2 | 32.1 | 1.36 | 2.67 |  |  |
| CNC(=O)/C=C/C1=CN2C(=O)c3ccc(C)c(O)c3NC(OC)C2C1 (stereo not given) |  | < 0.0323 |  | < 0.0176 |  |  |  | 9.15 |  | 1.07 |  | > 8.66 |  | 0.0244 |  | > 100 |
| COc1cccc(C(=O)NNc2nc(Cl)nc(N3CCN(C(c4ccccc4)c4ccccc4)CC3)n2)c1 | 2.18 | 5.05 | 3.96 | 14.2 | 51 | > 100 | 3.4 | 13.1 | 16.8 | 30.4 | 13.2 | 26 | 1.73 | 3.44 |  |  |
| Cc1ccc(NC(=S)NNC(=S)Nc2ccc(C)cc2)cc1 | 2.55 | 8.52 | 2.5 | > 100 | 18.2 | > 100 | 51.3 | > 100 | 3.16 | > 100 | 17.3 | > 100 | > 100 | > 100 |  |  |
| COc1ccc2nc3cc([N+](=O)[O-])ccc3c(NCCO)c2c1 | 10 |  | 2.12 | 5.09 |  |  | 2.5 | 11.4 | 3.49 | 15.7 | 2.78 | 14.9 | 1.77 | 3.99 | 1.22 | 3.85 |

— PubChem BioAssay (NCI)
